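Interpolation was linear, between the two tested concentrations surrounding the appropriate level; five concentrations were tested over 48 hours in 96-well plates. GI50 is the concentration that inhibits growth by half. TGI marks complete inhibition of growth.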

Some test systems named below: 786-0 renal; CCRF-CEM leukemia; SK-MEL-2 melanoma; DU-145 prostate; A498 renal; HOP-92 NSCLC; OVCAR-8 ovarian; NCI-H226 lung; HOP-62 NSCLC; TK-10 renal.
What all share (assay): NCI-60 cell line screen, 48 h

For the molecule `Cc1nc2c(cnn2-c2ccnc3c(C(F)(F)F)cccc23)c(=O)o1`, the GI50 in the test on 786-0 renal, in the test on CCRF-CEM leukemia, in the test with SK-MEL-2 melanoma, with DU-145 prostate, with A498 renal and with HOP-92 NSCLC was > 100 µM throughout. Besides, the GI50 with OVCAR-8 ovarian, with NCI-H226 lung, with HOP-62 NSCLC and with TK-10 renal was > 100 µM each time. Further, the TGI in the test with 786-0 renal, with CCRF-CEM leukemia, with SK-MEL-2 melanoma, with DU-145 prostate, in the test with A498 renal and in the test with HOP-92 NSCLC was > 100 µM throughout. Further, the TGI in the test with OVCAR-8 ovarian, in the test on NCI-H226 lung, in the test on HOP-62 NSCLC and with TK-10 renal was > 100 µM in each case.
On to `CCOC(=O)c1cc2c(n1Cc1cccc(OC)c1)-c1oncc1CC2`, for which the GI50 in the test on 786-0 renal was 4.29 µM; in the test on CCRF-CEM leukemia, 1.43 µM; in the test on SK-MEL-2 melanoma, 1.11 µM; in the test with DU-145 prostate, 2.27 µM; in the test on A498 renal, 0.156 µM; in the test with HOP-92 NSCLC it was 10.5 µM. Further, the GI50 with OVCAR-8 ovarian was 10.3 µM; in the test with NCI-H226 lung, 7.46 µM; in the test with HOP-62 NSCLC it was 0.86 µM; in the test with TK-10 renal, 7.51 µM. Moreover, the TGI with 786-0 renal was > 100 µM; with CCRF-CEM leukemia it was > 100 µM; with SK-MEL-2 melanoma it was > 100 µM; in the test with DU-145 prostate it was > 100 µM; in the test with A498 renal, 3.39 µM; with HOP-92 NSCLC, > 100 µM. In addition, the TGI in the test on OVCAR-8 ovarian, in the test on NCI-H226 lung, in the test with HOP-62 NSCLC and with TK-10 renal was > 100 µM in each case.
As for `Clc1ccc(Cl)c(N/N=C\c2c[nH]c3ccccc23)c1`, the GI50 with 786-0 renal is 12.8 µM; with CCRF-CEM leukemia it was 0.107 µM; in the test with SK-MEL-2 melanoma, 13.1 µM; in the test on DU-145 prostate, 10.7 µM; with A498 renal it was 14.5 µM; in the test with HOP-92 NSCLC, 1.13 µM. Further, the GI50 is 14.9 µM in the test on OVCAR-8 ovarian, 7.99 µM with NCI-H226 lung, 15.2 µM with HOP-62 NSCLC and 12 µM in the test on TK-10 renal. The TGI was determined as 25.4 µM with 786-0 renal; 11.7 µM in the test with CCRF-CEM leukemia; 26.7 µM with SK-MEL-2 melanoma; 22.6 µM with DU-145 prostate; 29.6 µM in the test with A498 renal; 8.37 µM in the test with HOP-92 NSCLC. Moreover, the TGI with OVCAR-8 ovarian was 29.4 µM; with NCI-H226 lung it was 34.3 µM; in the test on HOP-62 NSCLC, 28.4 µM; with TK-10 renal, 26.8 µM.
In the case of `COc1ccc(C(=O)CC2(O)C(=O)Nc3c(Cl)ccc(Cl)c32)cc1` (stereo not given), the GI50 in the test with 786-0 renal was 6.42 µM; with CCRF-CEM leukemia it was 2.03 µM; in the test with SK-MEL-2 melanoma, 2.21 µM; in the test on DU-145 prostate, 3.44 µM; in the test with A498 renal, 0.599 µM; in the test on HOP-92 NSCLC it was 1.22 µM. Also, the GI50 in the test with OVCAR-8 ovarian is 3.62 µM; in the test with NCI-H226 lung, 30.6 µM; in the test on HOP-62 NSCLC, 3.42 µM; in the test with TK-10 renal, 8.98 µM. For the same molecule, the TGI was > 100 µM in the test on 786-0 renal; > 26.3 µM with CCRF-CEM leukemia; > 44.1 µM in the test on SK-MEL-2 melanoma; > 37.6 µM in the test on DU-145 prostate; 7.02 µM in the test on A498 renal; 18.4 µM in the test on HOP-92 NSCLC. For the same molecule, the TGI with OVCAR-8 ovarian is 60.3 µM; with NCI-H226 lung it was > 100 µM; in the test with HOP-62 NSCLC it was > 100 µM; in the test with TK-10 renal, > 100 µM.
Regarding `COc1c(O)c2ccccc2c2cc(O)ccc12`, the TGI with 786-0 renal amounted to 25.1 µM; with CCRF-CEM leukemia it was 73.8 µM; in the test with SK-MEL-2 melanoma, 11.9 µM; in the test on DU-145 prostate it was 21 µM; in the test on A498 renal it was 24.1 µM; with HOP-92 NSCLC, 24.3 µM. Also, the TGI in the test on OVCAR-8 ovarian amounted to 15.4 µM; in the test with NCI-H226 lung it was 31.6 µM; with HOP-62 NSCLC, 31.3 µM; in the test with TK-10 renal, 61.2 µM.
Turning to `CC(=O)O[C@@H]1C=CC(=O)C2(CC(=O)O[C@@H]2/C=C(\C)CCC=C(C)C)C1` (stereo not given in full), the GI50 with 786-0 renal was 0.931 µM; in the test on CCRF-CEM leukemia, 0.163 µM; with SK-MEL-2 melanoma it was 1.51 µM; with DU-145 prostate, 0.633 µM; in the test on A498 renal, 1.73 µM; in the test on HOP-92 NSCLC, 1.59 µM. Also, the GI50 with OVCAR-8 ovarian is 0.35 µM; in the test on NCI-H226 lung, 0.623 µM; with HOP-62 NSCLC it was 1.36 µM; with TK-10 renal, 1.67 µM. Also, the TGI stood at 2.26 µM in the test with 786-0 renal; 0.543 µM with CCRF-CEM leukemia; 4.43 µM in the test on SK-MEL-2 melanoma; 2.38 µM with DU-145 prostate; 3.81 µM with A498 renal; 3.94 µM in the test with HOP-92 NSCLC. Moreover, the TGI with OVCAR-8 ovarian was determined as 1.81 µM; in the test with NCI-H226 lung, 4.77 µM; in the test on HOP-62 NSCLC, 3.4 µM; in the test with TK-10 renal, 3.71 µM.
For `CC[C@]1(O)C[C@@H]2CN(Cc3c([nH]c4ccccc34)[C@@](C(=O)OC)(c3cc4c(cc3OC)N(C)[C@H]3[C@@](O)(C(=O)OC)[C@H](OC(C)=O)[C@]5(CC)[C@@H]6C[C@@H]6CN6CC[C@]43[C@@H]65)C2)C1`, the GI50 was 0.713 µM in the test on 786-0 renal; 0.0369 µM in the test with CCRF-CEM leukemia; 0.033 µM with SK-MEL-2 melanoma; 0.0433 µM in the test with DU-145 prostate; 0.163 µM in the test on A498 renal; 0.0314 µM with HOP-92 NSCLC. In addition, the GI50 in the test with OVCAR-8 ovarian was 0.318 µM; with NCI-H226 lung, > 1.44 µM; in the test with HOP-62 NSCLC it was 0.153 µM; with TK-10 renal, > 3.69 µM. Besides, the TGI in the test on 786-0 renal is > 4.38 µM; in the test with CCRF-CEM leukemia, > 4.38 µM; in the test with SK-MEL-2 melanoma, > 4.38 µM; in the test with DU-145 prostate it was > 4.38 µM; in the test on A498 renal, > 2.85 µM; with HOP-92 NSCLC, > 4.38 µM. Also, the TGI in the test with OVCAR-8 ovarian, in the test with NCI-H226 lung, in the test on HOP-62 NSCLC and in the test on TK-10 renal was > 4.38 µM throughout.

The record behind these values is PubChem BioAssay (NCI).
